Measured values: patent publication US20110300073A1, “18F-LABELLED THREE-AND FOUR-CARBON ACIDS FOR PET IMAGING” (priority 2008, published 2011)

Key:
[1] = system: prostate cancer CWR22RV1 xenografts; assay: MicroPET imaging of nude mice with CWR22RV1 xenografts; type: in vivo
Method: Small animal PET imaging was performed on MicroPET, to evaluate the potential of 2-[^18F]-fluoropropanoic acid (2-[^18F]-FPA), and 2-[^18F]-fluorobutanoic acid (2-[^18F]-FBA) as tumor imaging agents in mice with prostate cancer CWR22RV1 xenografts. […] In addition to uptake in the tumor, there is high uptake in heart and brain.
The mice were imaged using MicroPET first with [^18F]-FDG after 4 hour fasting 1 hour post injection. The activity was allowed to decay for 20 hrs and the same mice were imaged with 2-[^18F]-FPA 1 hour post injection. In case of 2-[^18F]-FPA, the animals were not fasted. […] 2-[^18F]-FPA has high uptake in brain like [^18F]
(§1) All animal experiments were done in accordance with protocols approved by the Institutional Animal Care and Use Committee of Memorial Sloan-Kettering Cancer Center and followed National Institutes of Health guidelines for animal welfare. Subcutaneous tumors were produced in nude mice (20-25 g; Charles River Laboratories) by subcutaneous injection of 5×10^6 tumor cells in 200 μl consisting of 100 μl of cell culture medium and 100 μl of Matrigel under 2% Isofluorane anesthesia on the right forelimb of mice.
Imaging was performed by use of a dedicated small-animal PET scanner (Focus 120 microPET; Siemens Medical Solutions USA, Inc.). Mice were maintained under 2% isoflurane anesthesia in oxygen at 2 L/min during the entire scanning period. Imaging was performed one hour post administration of 11.1 MBq (300 μCi) of either 2-[^18F]-FPA or [^18F]-FDG via the lateral tail vein. An energy window of 350-700 keV and a coincidence timing window of 6 ns were used. The image data were corrected for non-uniformity of the scanner response, dead time count losses, and physical decay to the time of injection. No correction was applied for attenuation, scatter, or partial-volume averaging. The measured reconstructed spatial resolution of the Focus 120 scanner is ˜1.6 mm full width at half maximum at the center of the field of view.

CWR22RV1 xenografts = assay: single isotope [18F] biodistribution study in mice with CWR22rv1 tumors; type: in vivo; conditions: for tumor to organ ratio, blood / tumor to organ ratio, bone / tumor to organ ratio, heart / tumor to organ ratio, kidneys / tumor to organ ratio, large intestine / tumor to organ ratio, liver / tumor to organ ratio, lungs / tumor to organ ratio, muscle / tumor to organ ratio, small intestine / tumor to organ ratio, spine / tumor to organ ratio, spleen / tumor to organ ratio, stomach: tail vein, nude mice with CWR22RV1 xenografts
Method: as §1
For single isotope ([^18F]) biodistribution studies, mice with CWR22rv1 tumors were injected intravenously in the tail vein with 3.7-5.5 MBq (100-150 μCi) of [^18F]-FPA in 200 μL of saline. Radioactivity in the syringe before and after administration was measured in an energy-calibrated dose calibrator (CRC-15R; Capintec) and exact quantity received by each animal was determined. The animals were euthanized at different time points and then the organs were harvested. [^18F] radioactivity was measured in a calibrated gamma counter (Perkin Elmer 1480 Wizard 3 Auto Gamma counter, Waltham, Mass.) using 400-600 keV energy window and decay correction. The counts were converted into activity and % ID/g was calculated by dividing with decay corrected injected activity and weight of the organ. […] In addition to tumor, there is high uptake in blood and heart. The tumor to organ ratio of 2-[^18F]-FPA at 1, 2, 3 and 4 hour post injection is: […]

rats [2] = conditions: Dreisbach's Handbook of Poisoning; cited from earlier work
rats [3] = assay: toxicity in rats (oral LD50 / single dose); conditions: given at 212 mg/kg to rats
[4] = summary over 1-4 hour post injection

## CC([18F])C(=O)O (centres unmarked) [2-[^18F]-FPA, 2-[^18F]-fluoropropanoic acid]
[1]; 1 hour post injection
  uptake in brain (MicroPET): high uptake
[1]; 1 hour post injection, FIG. 1
  accumulation in the kidneys of mice, unlike [18F]-FDG: much lower accumulation
[1]; 1 hour post injection, same mice, FIG. 1
  tumor visualization as compared to [18F]-FDG: much more clearly
[1]; one hour post administration
  uptake in heart (MicroPET): high uptake
[1]; one hour post administration, transaxial and coronal slices, 5 minute acquisition time
  tumor visualization in MicroPET image: easily visualized
CWR22RV1 xenografts; 1, 2, 3 and 4 hour post administration via tail vein
  biodistribution during the time of study: remains similar
CWR22RV1 xenografts; 1-4 hour post administration
  accumulation of tracer in tumor: considerable accumulation
  uptake in blood: high uptake
  uptake in heart (biodistribution): high uptake
CWR22RV1 xenografts; 1 hour post injection
  tumor to organ ratio, blood: 1.05
  tumor to organ ratio, bone: 2.79
  tumor to organ ratio, heart: 0.90
  tumor to organ ratio, kidneys: 1.43
  tumor to organ ratio, large intestine: 1.39
  tumor to organ ratio, liver: 1.35
  tumor to organ ratio, lungs: 1.22
  tumor to organ ratio, muscle: 1.79
  tumor to organ ratio, small intestine: 1.26
  tumor to organ ratio, spine: 1.76
  tumor to organ ratio, spleen: 1.40
  tumor to organ ratio, stomach: 2.50
CWR22RV1 xenografts; 2 hours post injection
  tumor to organ ratio, blood: 1.03
  tumor to organ ratio, bone: 2.14
  tumor to organ ratio, heart: 0.94
  tumor to organ ratio, kidneys: 1.57
  tumor to organ ratio, large intestine: 1.49
  tumor to organ ratio, liver: 1.24
  tumor to organ ratio, lungs: 1.17
  tumor to organ ratio, muscle: 1.79
  tumor to organ ratio, small intestine: 1.57
  tumor to organ ratio, spine: 1.61
  tumor to organ ratio, spleen: 1.56
  tumor to organ ratio, stomach: 3.60
CWR22RV1 xenografts; 3 hours post injection
  tumor to organ ratio, blood: 1.04
  tumor to organ ratio, bone: 2.58
  tumor to organ ratio, heart: 1.07
  tumor to organ ratio, kidneys: 1.60
  tumor to organ ratio, large intestine: 1.51
  tumor to organ ratio, liver: 1.33
  tumor to organ ratio, lungs: 1.30
  tumor to organ ratio, muscle: 1.76
  tumor to organ ratio, small intestine: 1.58
  tumor to organ ratio, spine: 1.57
  tumor to organ ratio, spleen: 1.62
  tumor to organ ratio, stomach: 4.48
CWR22RV1 xenografts; 4 hours post injection
  tumor to organ ratio, blood: 1.06
  tumor to organ ratio, bone: 1.90
  tumor to organ ratio, heart: 1.00
  tumor to organ ratio, kidneys: 1.29
  tumor to organ ratio, large intestine: 1.87
  tumor to organ ratio, liver: 1.41
  tumor to organ ratio, lungs: 1.32
  tumor to organ ratio, muscle: 1.85
  tumor to organ ratio, small intestine: 1.44
  tumor to organ ratio, spine: 1.44
  tumor to organ ratio, spleen: 1.56
  tumor to organ ratio, stomach: 3.54
CWR22RV1 xenografts; [4]
  tumor to organ ratio, heart (overall): around 0.95
  tumor to organ ratio, most of the organs except heart: greater than 1

## O=C(O)CF [2-fluoroacetic acid]
Rats [2]
  oral LD50 in rats: 0.22 mg/kg

## CC(F)C(=O)O (centres unmarked) [2-fluoropropanoic acid]
Rats [3]
  toxicity in rats: no toxicity was observed

## OC[C@H]1OC(O)[C@H]([18F])[C@@H](O)[C@@H]1O (some centres unmarked) [[^18F]-FDG, [^18F]-fluorodeoxyglucose, reference compound]
[1]; 1 hour post injection
  uptake in brain (MicroPET): high uptake
